pIC50: −log10 of the molar value.

We go through 1 molecule from patent US12582652B2, “3-(ethoxydifluoromethyl)-6-(5-fluoro-6-(2,2,2-trifluoroethoxy)pyridin-3-yl)-[1,2,4]triazolo[4,3-a]pyrazine as an ion channel modulator” (Praxis Precision Medicines, Inc., priority 2022, dated 2026).

One experiment deals with Hcn1 DEE mouse model. In words: Pentylenetetrazole (PTZ) induced seizure, Hcn1 model. It is filed as in vivo. As to the method: Pentylenetetrazole (PTZ), a GABA receptor antagonist, can be used to create a common, chemically-induced seizure model, a model of generalized seizure.
Mice were acclimated to experimental area for minimum 30 minutes before experimentation. All experiments were performed between 10:00 am and 12:30 pm. The treatment compounds and PTZ were always prepared fresh.
Mice were randomly assigned either to different doses of Compound 1 (10 mg/kg, 1 mg/kg, or 0.1 mg/kg) or a vehicle control containing 0.5% methylcellulose and 0.2% tween 80, and dosed via oral gavage (p.o). Compound 1 and the vehicle control were administered 60 minutes before the injection of PTZ.
PTZ (100 mg/kg) was dissolved in saline and administered subcutaneously (s.c) to the experimental mice. The latency to full tonic-clonic seizure with hind limb extension was measured. The animals were sacrificed either at the time of hind limb extension or 40 minutes after PTZ administration if no hind limb extension was recorded.
Data were analyzed using a Mantel-Cox log-rank test. Brain tissue and plasma were collected from some mice for each dose of Compound 1 at the PTZ endpoint for PK analysis.

The target of the next experiment is T1, hNaV1.6 (Homo sapiens, UniProt Q9UQD0).
T1 construct: stably expressing either human NaV1.6 (NP_055006); expressed in transfected cells
The experiment can be described thus: Steady-state inactivation and activation curves (V1/2 shift). Format: cell-based. The following applies: for shift in V1/2 of activation curve: DMSO control −1.3 mV.

A further experiment deals with healthy participants. The experiment can be described thus: Phase 1 SAD/MAD trial: EEG pharmacodynamics (ASSR, qEEG). Format: in vivo, human. The following applies: for reduction from baseline in ASSR phase-locking factor (PLF): Day 14, 2 hours 35 minutes postdose. As to the method: This was a 3-part Phase 1 clinical trial in healthy participants aged 18-55 years. Parts A and B were randomized, placebo-controlled and evaluated the effects of single (2.5-150 mg) and multiple (30-120 mg, 14 days QD (every day)) ascending oral doses of Compound 1, respectively. Part C was an open-label, randomized, crossover design evaluating the PK of a single oral dose (90 mg) in fasted and fed states. In Parts A (n=64) and B (n=32), participants were randomized 3:1 to Compound 1 or placebo (n=8/cohort). In Part C (n=16), participants were randomized 1:1 to one of two treatment sequences receiving a single dose of 90 mg Compound 1 in the fed (following a high-fat/high calorie meal) or fasted (≥10 hours after the last, and 4 hours before the next, meal) state.
In this clinical trial, the PD activity of Compound 1 was evaluated in healthy participants using electroencephalogram (EEG)-based auditory steady-state response (ASSR) measures and resting state EEG (qEEG)-based spectral power measures under eyes-open and eyes-closed conditions.

The target in another experiment is T2, human NaV1.6 (Homo sapiens, UniProt Q9UQD0).
T2 construct: stably expressing either human NaV1.6 (NP_055006); expressed in transfected cells
The experiment can be described thus: Peak INa voltage-dependent block (VDB), PatchXpress patch clamp. It is filed as cell-based. As to the method:
HEK-293 cell lines stably expressing either human NaV1.6 (NP_055006), mouse NaV1.6 (NP_035453.2), or rat NaV1.6 (NP_062139) were used. All cells were seeded at 2×10^6 cells per Nunc T75 flask for 2 days in culture. At time of harvest for assays, the cell counts were approximately 6×10^6 cells. Cells were washed (1×) in DPBS (Hyclone, Cat #SH30028.03) for approximately 30 seconds. 1 mL of 1×0.05% Trypsin-EDTA (GIBCO Cat #25300-054) was added and swirled around to cover the bottom of the flask and was allowed to sit on the cells for approximately 4 minutes (±90% of the cells were lifted by light tapping of the flask). 10 mL of warmed media (DMEM high glucose media Hyclone, SH30022.02 supplemented with 10% Fetal Bovine Serum, 2 mM Sodium Pyruvate, 10 mM HEPES and 400 μg/mL G418) was added to inactivate the trypsin. Cells were triturated until a single cell suspension was achieved. A cell count was performed and cells were aliquoted into a 250 ml centrifuge tube at a concentration of 2×10^5/mL in +30 ml of prewarmed media. The 250 mL centrifuge tube was placed on a rocker in an incubator set at 28° C. and gently rocked for approximately 1 hour to allow cells to recover. Cell aliquots of 5 mL (1×10^6 cells) were placed in a 15 mL centrifuge tube and spun at 100×g for 2 minutes. Supernatant was removed leaving a cell pellet. 100 μL of external recording solution was added to the pellet and triturated 20 times to achieve a single cell suspension and then transferred to a 1.5 mL tube for placement in the PatchXpress® (Molecular Devices).
Compound 1 was provided as powder and prepared as 10 mM DMSO stocks in 1 dram glass vials prior to assay. Immediately prior to assay, Compound 1 was diluted with DMSO to 300×, the designated final assay concentration. Assay dilutions (1× concentration) were prepared by pipetting 3 μL of diluted Compound 1 into 897 μL of extracellular solution in a 1 mL glass shell vial. Vials were capped and vortexed until initiation of the PatchXpress® (Molecular Devices) recording protocol.
The same intracellular recording solution was used for the persistent and peak INa assays, which contained: 135 mM CsF, 10 mM CsCl, 5 mM NaCl, 10 mM HEPES, 5 mM EGTA at a pH of 7.4 (adjusted with CsOH) and a measured osmolarity of 298 mOsm (adjusted with mannitol). For the persistent INa assay, the external recording solution contained: 135 mM NaCl, 5.4 mM KCl, 5 mM glucose, 2 mM CaCl2), 1 mM MgCl2, 10 mM HEPES, and 200 nM ATX-II (sea anemone toxin, Alomone Labs; Jerusalem, Israel) at a pH of 7.4 (adjusted with NaOH) and a measured osmolarity of 300 mOsm (adjusted with mannitol). For the peak INa assays, the external recording solution contained: 100 mM NaCl, 35 mM NMDG, 5.4 mM KCl, 5 mM glucose, 2 mM CaCl2), 1 mM MgCl2, and 10 mM HEPES at a pH of 7.4 (adjusted with NaOH) and a measured osmolarity of 300 mOsm (adjusted with mannitol).
All studies were performed using the PatchXpress® (Molecular Devices) automated patch clamp platform (Molecular Devices) using the whole cell configuration. Recordings were performed at room temperature. Data were collected using Patch Commander software (Molecular Devices) and processed using DataXpress 2.0 (Molecular Devices). Cell acceptance criteria were continuously monitored by custom scripts during the recording. Acceptance criteria for all assays were: baseline peak INa>800 pA, Rseal>200 MΩ, and, where appropriate, persistent INa>100 pA. Compensation was 50% and leak subtraction was not used. Currents were filtered at 5 kHz and digitized at 32.5 kHz. Raccess and Rseal were monitored throughout the recording and cells with Raccess>10 MΩ or Rseal<200 MΩ were terminated automatically by script.
Voltage Dependent Block (VDB): VDB protocols used a depolarized voltage to keep channels in half-inactivated (resting) states. This allowed equilibrium binding and accurate determination of isoform selectivity (in the absence of biological features).
(The patch-clamp technique gives a direct electrical read-out from membranes.)

T1 sequence (Q9UQD0 whole entry): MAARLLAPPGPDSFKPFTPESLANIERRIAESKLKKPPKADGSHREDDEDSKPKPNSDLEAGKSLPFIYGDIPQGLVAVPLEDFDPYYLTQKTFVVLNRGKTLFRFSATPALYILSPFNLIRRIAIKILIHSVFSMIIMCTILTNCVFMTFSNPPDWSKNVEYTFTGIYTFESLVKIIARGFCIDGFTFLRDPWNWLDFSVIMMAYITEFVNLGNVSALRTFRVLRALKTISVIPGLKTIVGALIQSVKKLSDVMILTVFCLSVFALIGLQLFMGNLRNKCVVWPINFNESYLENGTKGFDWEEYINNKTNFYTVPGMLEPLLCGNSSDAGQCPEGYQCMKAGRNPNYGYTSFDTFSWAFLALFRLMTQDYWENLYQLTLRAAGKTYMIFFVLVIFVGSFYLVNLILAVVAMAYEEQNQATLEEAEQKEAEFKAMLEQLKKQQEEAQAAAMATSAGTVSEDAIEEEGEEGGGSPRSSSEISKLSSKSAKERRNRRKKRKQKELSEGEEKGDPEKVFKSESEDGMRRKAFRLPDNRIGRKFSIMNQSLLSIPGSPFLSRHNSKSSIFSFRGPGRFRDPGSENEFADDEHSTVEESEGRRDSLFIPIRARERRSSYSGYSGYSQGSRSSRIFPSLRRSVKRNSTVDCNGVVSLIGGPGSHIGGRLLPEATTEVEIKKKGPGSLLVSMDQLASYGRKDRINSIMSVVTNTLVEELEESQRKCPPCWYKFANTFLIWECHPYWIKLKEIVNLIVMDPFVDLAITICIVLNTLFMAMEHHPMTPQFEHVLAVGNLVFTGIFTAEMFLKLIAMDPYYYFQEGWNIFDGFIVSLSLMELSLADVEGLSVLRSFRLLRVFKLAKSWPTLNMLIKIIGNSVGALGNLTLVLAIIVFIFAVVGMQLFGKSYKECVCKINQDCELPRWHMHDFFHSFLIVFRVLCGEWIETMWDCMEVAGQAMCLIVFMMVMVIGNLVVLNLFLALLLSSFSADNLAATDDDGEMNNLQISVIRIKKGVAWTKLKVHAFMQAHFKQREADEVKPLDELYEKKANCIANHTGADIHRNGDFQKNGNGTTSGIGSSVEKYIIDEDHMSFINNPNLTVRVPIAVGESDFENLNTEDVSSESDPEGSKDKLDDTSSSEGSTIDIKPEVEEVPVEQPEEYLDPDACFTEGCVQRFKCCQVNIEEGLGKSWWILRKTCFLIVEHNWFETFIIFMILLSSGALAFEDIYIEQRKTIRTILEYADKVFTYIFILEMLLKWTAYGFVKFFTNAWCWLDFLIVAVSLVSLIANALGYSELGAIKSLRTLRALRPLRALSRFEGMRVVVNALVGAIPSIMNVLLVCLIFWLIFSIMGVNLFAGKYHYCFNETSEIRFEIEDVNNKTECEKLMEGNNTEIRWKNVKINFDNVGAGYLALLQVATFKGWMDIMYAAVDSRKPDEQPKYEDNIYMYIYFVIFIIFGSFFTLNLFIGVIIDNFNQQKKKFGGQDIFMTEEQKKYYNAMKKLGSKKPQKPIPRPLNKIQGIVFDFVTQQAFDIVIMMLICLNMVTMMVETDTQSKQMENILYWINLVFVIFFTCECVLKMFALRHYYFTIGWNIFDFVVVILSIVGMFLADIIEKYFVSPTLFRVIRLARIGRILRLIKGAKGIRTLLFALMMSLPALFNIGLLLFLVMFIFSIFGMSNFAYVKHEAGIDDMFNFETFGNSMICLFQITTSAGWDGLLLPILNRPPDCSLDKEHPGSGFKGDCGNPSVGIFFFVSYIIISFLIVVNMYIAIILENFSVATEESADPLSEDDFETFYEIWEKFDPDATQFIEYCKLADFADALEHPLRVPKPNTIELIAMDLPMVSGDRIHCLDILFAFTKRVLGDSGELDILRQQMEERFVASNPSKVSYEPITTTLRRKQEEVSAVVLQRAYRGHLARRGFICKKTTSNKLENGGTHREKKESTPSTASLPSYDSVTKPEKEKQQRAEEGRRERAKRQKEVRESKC
T2 sequence (Q9UQD0 whole entry): as above

Turning to `CCOC(F)(F)c1nnc2cnc(-c3cnc(OCC(F)(F)F)c(F)c3)cn12` [Compound 1, 3-(ethoxydifluoromethyl)-6-(5-fluoro-6-(2,2,2-trifluoroethoxy)pyridin-3-yl)-[1,2,4]triazolo[4,3-a]pyrazine], the “protection from hindlimb extension (FIG. 14E)” value in the experiment on Hcn1 DEE mouse model is listed as “robust anticonvulsant activity”. Further, the “shift in V1/2 of activation curve” value on hNaV1.6 (0.3 μmol/L) is given as −2.3 mV; on hNaV1.6 (1 μmol/L) it was −2.7 mV. Also, on hNaV1.6 (1 μmol/L, DMSO control −2.6 mV), the “shift in V1/2 of steady-state inactivation curve” value is reported as −11.7 mV. Besides, the “reduction from baseline in ASSR phase-locking factor (PLF)” value in the experiment on healthy participants (90 mg QD) is listed as “approximately 30%”; in the experiment with healthy participants (120 mg QD), approximately 60%. In addition, the “qEEG Delta (1.5-6 Hz) and Theta (6-8.5 Hz) band spectral power” value with healthy participants (120 mg single dose and 120 mg QD) is “Increases from baseline”. The “ASSR-based absolute evoked gamma power vs placebo” value in the experiment on healthy participants (any Compound 1 dose level) is listed as “No statistically significant differences”. The “Ratio to Pers. INa (Peak INa VDB / persistent INa)” value on human NaV1.6 (hNaV1.6) was found to be 2.2. In addition, the pIC50 (in general, the IC50 on a negative log10 scale, so that one unit is a factor of ten) at human NaV1.6 (hNaV1.6, half-inactivated (V1/2)) is 6.50.
